The results in this text go back to ChEMBL document CHEMBL1144059, “Interference of linoleic acid fraction in some receptor binding assays” (J Nat Prod, 1999).

Test [1] is filed under the species Bos taurus. Kind of test: Displacement of [3H]nitrobenzylthiosine from nucleoside transport protein in calf lung membrane at 10 uM. The test is classed as cell membranes. On the technique in general: In a radioligand displacement assay an active substance lowers the binding of a labelled ligand.
The target in test [2] is T1, Adenosine receptor A1 (Rattus norvegicus) (UniProt P25099).
T1 sequence (whole entry): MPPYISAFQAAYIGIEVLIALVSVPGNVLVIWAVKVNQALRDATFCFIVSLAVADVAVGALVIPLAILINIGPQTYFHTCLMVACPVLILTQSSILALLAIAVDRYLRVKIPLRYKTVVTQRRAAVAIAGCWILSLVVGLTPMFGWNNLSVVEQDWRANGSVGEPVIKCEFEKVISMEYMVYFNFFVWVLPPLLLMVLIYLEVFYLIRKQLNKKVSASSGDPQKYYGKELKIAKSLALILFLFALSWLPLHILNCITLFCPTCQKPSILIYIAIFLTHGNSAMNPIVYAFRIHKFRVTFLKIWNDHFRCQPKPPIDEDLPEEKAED
Kind of test: Displacement of [3H]DPCPX from rat brain adenosine A1 receptor at 56 uM assessed per mg of protein by saturation analysis.

For test [3], the species on record is Rattus norvegicus. Description: Displacement of [3H]naloxone from rat opioid receptor at 0.1 mM.
Another test addresses T2, Adenosine receptor A1 (Rattus norvegicus, UniProt P25099).
T2 sequence (P25099 whole entry): T1 sequence (whole entry)
Kind of test: Displacement of [3H]DPCPX from rat adenosine A1 receptor by liquid scintillation counting.

Test [4] deals with T1, Adenosine receptor A1 (Rattus norvegicus). Description: Displacement of [3H]DPCPX from rat adenosine A1 receptor at 0.1 mM by liquid scintillation counting.
For test [5] the target is unchanged. Kind of test: Displacement of [3H]DPCPX from rat adenosine A1 receptor at 1 mM by liquid scintillation counting.
Test [6] is filed under the species Bos taurus. Description: Displacement of [3H]nitrobenzylthiosine from nucleoside transport protein in calf lung membrane at 0.1 mM. The test is classed as cell membranes.
The species entered for test [7] is Rattus norvegicus. Kind of test: Displacement of [3H]naloxone from rat opioid receptor at 10 uM.
The target in test [8] is T1, Adenosine receptor A1 (Rattus norvegicus). Description: Displacement of [3H]DPCPX from rat adenosine A1 receptor at 10 uM by liquid scintillation counting.
Test [9] is filed under the species Rattus norvegicus. Description: Displacement of [3H]naloxone from rat opioid receptor at 1 mM.
For test [10], the species on record is Bos taurus. Description: Displacement of [3H]nitrobenzylthiosine from nucleoside transport protein in calf lung membrane at 1 mM. The test is classed as cell membranes.

As usually defined, the IC50 is the midpoint of a concentration-inhibition curve.

Take `CCCCC/C=C\C/C=C\CCCCCCCC(=O)O` [LINOLEIC ACID]: the Activity was 100% in the test filed under Bos taurus [1]; 143 fmol in [2]; 42% in the test filed under Rattus norvegicus [3]; 3% in test [4]; 0% in [5]; 100% in the test filed under Bos taurus [6]. Besides, the Activity is 100% in the test listed under Rattus norvegicus [7], 85% in test [8], over 100% in the test filed under Rattus norvegicus [9] and under 0% in the test filed under Bos taurus [10]. The concentration for half-maximal inhibition (IC50) on Adenosine receptor A1 was determined as 65 µM.
